# Test results: patent publication US20120316211A1, “Diagnostic Methods for Assessing Risk of Chagas Disease and Heart Failure” (The Board or Regents of the University of Texas System, priority 2011, published 2012)
# Experiments:
# [1] = 2D-GE plasma proteome profile of T. cruzi infected rats treated with PBN and/or BZ; assay type: in vivo, Sprague Dawley rats; settings: chronically infected rats (RCP, RCB, RCPB), depleted plasma
# Method: (§1) Animals and parasites. Sprague Dawley rats (4-5-weeks-old, Harlan Labs) were infected with T. cruzi (SylvioX10/4, 50,000 trypomastigotes/rat, intraperitoneal). Rats were given 1.3 mM PBN (beginning day 0, throughout the course of infection) and/or 0.7 mM BZ (beginning day 40 pi, for three weeks) in drinking water. The plasma samples were obtained at acute ([…] days post-infection (dpi)) and chronic (>150 dpi) stages of infection and disease development.
# (§2) Rat plasma collection and removal of high-abundance proteins. Whole blood was collected in K3EDTA vacutainers and kept on ice for 30 min. The samples were centrifuged for 15 min at 3,000 g, and the lipid-containing upper layer was removed. The abundant proteins (e.g., albumin, α1-acid glycoprotein, α1-antitrypsin, α2-5 macroglobulin, apolipoproteins (ApoA-I, ApoA-II), fibrinogen, haptoglobin, immunoglobulins (IgA, IgG, and IgM), and transferrin) in plasma were removed using ProteomeLab IgY-12 LC 10 affinity spin columns (Beckman Coulter). The plasma samples depleted of abundant proteins were then concentrated by using Amicon® ultra centrifugal filters (3 kDa cut-off, from Millipore) and desalted by PD-10 desalting columns (GE Healthcare). Protein content was determined by using the Bradford assay (Bio-Rad).
# (§3) Two-dimensional gel electrophoresis. The 11-cm immobilized pH gradient (IPG) strips (pH: 3-10 or 5-8, Bio-Rad) were rehydrated at 50 V for 12 h with 250-μl rehydration buffer (1 M thiourea, 8 M urea, 2% CHAPS, 1% dithiothreitol, and 0.2% ampholytes) containing 200-μg protein samples and 0.002% of bromophenol blue. Isoelectric focusing was performed at 500 V for 1 h, 1000 V for 1 h, 8000 V for 2 h, and then at 8000 V for a total of 50,000 Vh. The IPG strips were suspended in equilibration buffer (50 mM Tris-HCI, pH 6.8, 6 M urea, 20% glycerol) and sequentially incubated for 15 min each in presence of 2% DTT/2% SDS (reducing conditions) and 2.5% iodoacetamide/2% SDS (alkylating conditions). Equilibrated IPG strips were subjected to second-dimension electrophoresis by using 8-10% linear gradient precast Tris-HCI gels (BioRad) on a PROTEAN plus Dodeca Cell System at 75 V for 1 h and then at 120 V until the dye front reached the bottom of the gel. Gels were fixed in 10% methanol/7% acetic acid, stained with SYPRO Ruby (BioRad), destained in 10% ethanol/7% acetic acid, and imaged by using a high-resolution ProXPRESS Proteomic Imaging System (Perkin Elmer).
# (§4) Image analysis. In total, 28 SYPRO Ruby-stained 2D gels (n=4/group) were digitalized on a ProXPRESS Proteomic Imaging System (Perkin Elmer), and the images were analyzed on Progenesis SameSpots™ software 2.0 (NonLinear Dynamics). Normalized spot volumes, i.e., the volume of each spot over the volume of all spots in the gel, were used for comparison of the different groups, and candidates were identified as protein spots that changed at least 2-fold versus their specific control. Statistical significance was assessed by a two-tailed Student's t-test and analysis of variance test (ANOVA), and p values of <0.05 were considered significant for comparison between control and experimental data.
# (§5) Sprague Dawley rats were infected with T. cruzi and treated with phenyl-α-tert-butyl nitrone (PBN, antioxidant) with or without benznidazole (BZ, anti-parasite drug). Plasma samples were collected at day 25 (acute stage) and 150 (chronic stage) post-infection, and depleted of high-abundance proteins to enrich detection of low-abundance proteins by 2D-gel electrophoresis. Gel images of plasma samples from normal rats (RN), rats that were acutely infected (RA) and treated with PBN (RAP), and chronically infected rats (RC) that were treated with PBN (RCP), BZ (RCB), or PBN and BZ (RCPB) were analyzed on Progenesis SameSpotst™ software and normalized spot volumes were used for comparison of different groups.
# T. cruzi [2] = assay: as above; assay type: in vivo, Sprague Dawley rats
# Method: as §1, §2, §3, §4, §5
# T. cruzi [3] = assay: Detection of carbonyl proteins (DNPH, anti-DNP Western blotting) in plasma of T. cruzi infected rats; assay type: in vivo, Sprague Dawley rats
# Method: as §1
# Detection of carbonyl proteins. IPG strips were loaded with protein samples and subjected to 1st-dimension isoelectric focusing, as above. IPG strips were then incubated with 1 ml of 3% SDS and 5 mM 2,4-dinitrophenylhydrazine (DNPH)/10% trifluoroacetic acid for 25 min. […] Membranes were hybridized with rabbit anti-DNP antibody (1:300 dilution, Invitrogen) and HRP-conjugated goat anti-rabbit secondary antibody (1:4000 dilution, Sigma), and signal detected by using an Amersham™ ECL Plus system, according to the manufacturer's protocol (Levine et al., (1990) Methods Enzymol, 186, 464-78; Wen and Garg, (2004) Free Radic Biol Med, 37, 2072-81). Images were visualized, digitized, and signal was quantified by densitometry by using a FluorChem 8800 image analyzer (Alpha Innotech). […]
# Trypanosoma cruzi = settings: cited from earlier work
# [4] = chronically infected rats (RCP, RCB, RCPB), depleted plasma
compound,measurement,setting,value
"O=C(Cn1ccnc1[N+](=O)[O-])NCc1ccccc1 [BZ, Benznidazole]","Average Normalized Density × 100,000, spot 106 CDK5RAP2",[1],2.21
same,number of proteins stimulated in a treatment-specific manner,T. cruzi [2]; chronic chagasic plasma,2
same,number of proteins with altered expression,"T. cruzi [2]; chronic chagasic plasma, 22 of the 61 shared with BZ-treated rats",22
same,decline in the plasma proteome profile,T. cruzi [2]; chronically infected rats,30.1%
same,"Average Normalized Density × 100,000, spot 12, 180 KRT1",T. cruzi [2]; [4],9.47
same,"Average Normalized Density × 100,000, spot 34 TTC37",T. cruzi [2]; [4],0.37
same,"Average Normalized Density × 100,000, spot 37, 593 SRPRB",T. cruzi [2]; [4],3.21
same,"Average Normalized Density × 100,000, spot 49, 673 IGH-1",T. cruzi [2]; [4],3.98
same,"Average Normalized Density × 100,000, spot 52, 54, 302 TF",T. cruzi [2]; [4],0.60
same,"Average Normalized Density × 100,000, spot 53, 225 SroTP",T. cruzi [2]; [4],1.72
same,"Average Normalized Density × 100,000, spot 72 IDH3A",T. cruzi [2]; [4],83.09
same,"Average Normalized Density × 100,000, spot 73, 705, 787 ALB",T. cruzi [2]; [4],216.9
same,"Average Normalized Density × 100,000, spot 77 MUG1",T. cruzi [2]; [4],107.7
same,"Average Normalized Density × 100,000, spot 88 IGHG-",T. cruzi [2]; [4],4.75
same,"Average Normalized Density × 100,000, spot 94 FGB",T. cruzi [2]; [4],0.55
same,"Average Normalized Density × 100,000, spot 115, 123 SERPINAL1",T. cruzi [2]; [4],8.36
same,"Average Normalized Density × 100,000, spot 149 PUS1",T. cruzi [2]; [4],1.16
same,"Average Normalized Density × 100,000, spot 153 MYL2",T. cruzi [2]; [4],2.37
same,"Average Normalized Density × 100,000, spot 177 AIM",T. cruzi [2]; [4],2.77
same,"Average Normalized Density × 100,000, spot 181 SERPINA3L",T. cruzi [2]; [4],7.53
same,"Average Normalized Density × 100,000, spot 184, 257, 328 CFH",T. cruzi [2]; [4],6.15
same,"Average Normalized Density × 100,000, spot 207, 555 CCHL1A1",T. cruzi [2]; [4],11.32
same,"Average Normalized Density × 100,000, spot 215 GPT",T. cruzi [2]; [4],3.23
same,"Average Normalized Density × 100,000, spot 266 CEP350",T. cruzi [2]; [4],1.43
same,"Average Normalized Density × 100,000, spot 299 UMPS",T. cruzi [2]; [4],1.17
same,"Average Normalized Density × 100,000, spot 315 ITIH4",T. cruzi [2]; [4],5.19
same,"Average Normalized Density × 100,000, spot 334 ZNF689",T. cruzi [2]; [4],1.05
same,"Average Normalized Density × 100,000, spot 341 Nmag 2782",T. cruzi [2]; [4],1.44
same,"Average Normalized Density × 100,000, spot 355, 359 PLG",T. cruzi [2]; [4],3.29
same,"Average Normalized Density × 100,000, spot 382, 385, 378, 572, 578, 595 CFB",T. cruzi [2]; [4],23.45
same,"Average Normalized Density × 100,000, spot 389 GSN",T. cruzi [2]; [4],44.17
same,"Average Normalized Density × 100,000, spot 430 SCD2",T. cruzi [2]; [4],13.65
same,"Average Normalized Density × 100,000, spot 434, 678 COG1",T. cruzi [2]; [4],43.20
same,"Average Normalized Density × 100,000, spot 439 C4BPA",T. cruzi [2]; [4],1.36
same,"Average Normalized Density × 100,000, spot 452 AFM",T. cruzi [2]; [4],59.65
same,"Average Normalized Density × 100,000, spot 464 IGH-6",T. cruzi [2]; [4],4.66
same,"Average Normalized Density × 100,000, spot 479 IGHM",T. cruzi [2]; [4],8.65
same,"Average Normalized Density × 100,000, spot 493 ZFP637",T. cruzi [2]; [4],17.41
same,"Average Normalized Density × 100,000, spot 515 CESIC/ES2",T. cruzi [2]; [4],24.22
same,"Average Normalized Density × 100,000, spot 524 ERCC4",T. cruzi [2]; [4],68.54
same,"Average Normalized Density × 100,000, spot 551, 587, 908 C3",T. cruzi [2]; [4],32.88
same,"Average Normalized Density × 100,000, spot 559 HPX",T. cruzi [2]; [4],17.91
same,"Average Normalized Density × 100,000, spot 571 GC",T. cruzi [2]; [4],3.75
same,"Average Normalized Density × 100,000, spot 576, 620 Act-248",T. cruzi [2]; [4],2.38
same,"Average Normalized Density × 100,000, spot 586, 614 SERPINC1",T. cruzi [2]; [4],132.20
same,"Average Normalized Density × 100,000, spot 592 DNASE1L1",T. cruzi [2]; [4],11.70
same,"Average Normalized Density × 100,000, spot 604 APOH",T. cruzi [2]; [4],67.12
same,"Average Normalized Density × 100,000, spot 606 GC",T. cruzi [2]; [4],11.27
same,"Average Normalized Density × 100,000, spot 627 MAPI",T. cruzi [2]; [4],44.92
same,"Average Normalized Density × 100,000, spot 638 LOC501738",T. cruzi [2]; [4],4.69
same,"Average Normalized Density × 100,000, spot 649 SYNE2",T. cruzi [2]; [4],26.48
same,"Average Normalized Density × 100,000, spot 651 DSTN",T. cruzi [2]; [4],37.12
same,"Average Normalized Density × 100,000, spot 655 DLGAP2",T. cruzi [2]; [4],151.30
same,"Average Normalized Density × 100,000, spot 672 SERPINF",T. cruzi [2]; [4],23.29
same,"Average Normalized Density × 100,000, spot 676 rCG33447",T. cruzi [2]; [4],24.67
same,"Average Normalized Density × 100,000, spot 691 APOA4",T. cruzi [2]; [4],65.41
same,"Average Normalized Density × 100,000, spot 715 SERPINA1",T. cruzi [2]; [4],30.96
same,"Average Normalized Density × 100,000, spot 724 ALB",T. cruzi [2]; [4],2.19
same,"Average Normalized Density × 100,000, spot 728 SYMPK",T. cruzi [2]; [4],2.21
same,"Average Normalized Density × 100,000, spot 733 DECR2",T. cruzi [2]; [4],1.67
same,"Average Normalized Density × 100,000, spot 740 PRPH",T. cruzi [2]; [4],4.02
same,"Average Normalized Density × 100,000, spot 745 PFKFB1",T. cruzi [2]; [4],2.30
same,"Average Normalized Density × 100,000, spot 749 MY05B",T. cruzi [2]; [4],2.46
same,"Average Normalized Density × 100,000, spot 766 SCG2",T. cruzi [2]; [4],3.79
same,"Average Normalized Density × 100,000, spot 779, 909 VIM",T. cruzi [2]; [4],3.08
same,"Average Normalized Density × 100,000, spot 796 Hypothetical p",T. cruzi [2]; [4],5.11
same,"Average Normalized Density × 100,000, spot 814 RBM15B",T. cruzi [2]; [4],3.61
same,"Average Normalized Density × 100,000, spot 817 BRPF1",T. cruzi [2]; [4],25.15
same,"Average Normalized Density × 100,000, spot 820, 1081 BFAR",T. cruzi [2]; [4],13.38
same,"Average Normalized Density × 100,000, spot 827 GNAT",T. cruzi [2]; [4],10.78
same,"Average Normalized Density × 100,000, spot 832 PSMB",T. cruzi [2]; [4],3.47
same,"Average Normalized Density × 100,000, spot 860 KRT10",T. cruzi [2]; [4],2.64
same,"Average Normalized Density × 100,000, spot 867 RAI14",T. cruzi [2]; [4],2.41
same,"Average Normalized Density × 100,000, spot 881 CHD4",T. cruzi [2]; [4],28.89
same,"Average Normalized Density × 100,000, spot 897 MY05A",T. cruzi [2]; [4],11.65
same,"Average Normalized Density × 100,000, spot 900 rCG25416",T. cruzi [2]; [4],7.06
same,"Average Normalized Density × 100,000, spot 906 APOE",T. cruzi [2]; [4],74.42
same,"Average Normalized Density × 100,000, spot 966 CMRF-35-like molecule-7",T. cruzi [2]; [4],49.99
same,"Average Normalized Density × 100,000, spot 979 rCG25357",T. cruzi [2]; [4],31.72
same,"Average Normalized Density × 100,000, spot 992 APOA1",T. cruzi [2]; [4],38.11
same,protein spots observed (2D-GE),T. cruzi [2]; [4],2486
same,differentially expressed proteins identified in chagasic plasma of treated rats,"T. cruzi [2]; share of differentially expressed protein spots, FIG. 7B",17%
same,protein carbonylation,T. cruzi [3]; chronic chagasic plasma,not effective in preventing protein carbonylation
same,carbonylated protein spots,"T. cruzi [3]; chronically infected rats (RCP, RCB, RCPB), plasma",31
same,controlling parasitemia,Trypanosoma cruzi; acutely infected individuals,effective
same,efficacy in arresting or reversing disease progression,Trypanosoma cruzi; chronically infected patients,not clearly established
